By melting point is commonly meant the temperature, or range, at which the solid turns liquid.

Counter-ions that a name gives are not always drawn.

One series has as its system C5a induced PMN migration. Briefly: Inhibition of C5a induced chemotaxis of human PMNs (microchamber assay). The format is cell-based. The following applies: compound concentration range between 10^−7 and 10^−8 M, C5a 10^−9 M, 60 min at 37° C. The procedure: The compounds of the invention of formula (I) were evaluated in vitro for their ability to inhibit chemotaxis of polymorphonucleate leukocytes (hereinafter referred to as PMNs) and monocytes induced by the fractions of the complement C5a and C5a-desArg. For this purpose, to isolate the PMNs from heparinized human blood, taken from healthy adult volunteers, mononucleates were removed by means of sedimentation on dextran (according to the procedure disclosed by W. J. Ming et al., J. Immunol., 138, 1469, 1987) and red blood cells by a hypotonic solution. The cell vitality was calculated by exclusion with Trypan blue, whilst the ratio of the circulating polymorphonucleates was estimated on the cytocentrifugate after staining with Diff Quick.
Human recombinant fractions C5a and C5a-desArg (Sigma) were used as stimulating agents in the chemotaxis experiments, giving practically identical results.
The lyophilized C5a was dissolved in a volume of HBSS containing 0.2% bovin serum albumin BSA so thus to obtain a stock solution having a concentration of 10^−5 M to be diluted in HBSS to a concentration of 10^−9 M, for the chemotaxis assays.
In the chemotaxis experiments, the PMNs were incubated with the compounds of the invention of formula (I) for 15′ at 37° C. in an atmosphere containing 5% CO2.
The chemotactic activity of the C5a was evaluated on human circulating polymorphonucleates (PMNs) resuspended in HBSS at a concentration of 1.5×10^6 PMNs per mL.
During the chemotaxis assay (according to W. Falket et al., J. Immunol. Methods, 33, 239, 1980) PVP-free filters with a porosity of 5 μm and microchambers suitable for replication were used.
The compounds of the invention in formula (I) were evaluated at a concentration ranging between 10^−7 and 10^−10 M; for this purpose they were added, at the same concentration, both to the lower pores and the upper pores of the microchamber. The wells in the lower part contain the solution of C5a or the simple carrier, those in the upper part contain the suspension of PMNs.
Inhibition of C5a-induced chemotactic activity by the individual compounds of the invention of formula (I) was evaluated by incubating the microchamber for the chemotaxis for 60 min at 37° C. in an atmosphere containing 5% CO2.
By way of example, the inhibition data of the chemotaxis of PMN (concentration range between 10^−7 and 10^−8 M) of some representative compounds of the invention are reported in Table 1.
With `C[C@@H](NS(=O)(=O)c1ccccc1)c1ccc(OS(=O)(=O)C(F)(F)F)cc1` [Compound 1, 4-{(1R)-1-[(phenylsulfonyl)amino]ethyl}phenyl trifluoromethanesulfonate], the “% inhibition C5a induced PMN migration” value was 50 ± 1 %.
In the case of `C[C@@H](NS(=O)(=O)c1ccccc1)c1cccc(C(=O)c2ccccc2)c1` [Compound 2, N-[(1R)-1-(3-benzoylphenyl)ethyl]benzenesulfonamide], the “% inhibition C5a induced PMN migration” value was found to be 59 ± 10%.
`C[C@@H](NS(=O)(=O)c1cccnc1)c1ccc(OS(=O)(=O)C(F)(F)F)cc1` [Compound 3, 4-{(1R)-1-[(pyridine-3-ylsulfonyl)amino]ethyl}phenyl trifluoromethanesulfonate]: the “% inhibition C5a induced PMN migration” value stood at 47 ± 7%.
Still for that read-out and setting: next, `C[C@@H](NS(C)(=O)=O)c1cccc(C(=O)c2ccccc2)c1` [Compound 4, N-[(1R)-1-(3-benzoylphenyl)ethyl]methanesulfonamide]: 48 ± 8%.
Same read-out and setting: under `C[C@@H](NS(=O)(=O)c1cccs1)c1cccc(C(=O)c2ccco2)c1` [Compound 5, N-[(1R)-1-[3-(2-furoyl)phenyl]ethyl}thiophene-2-sulfonamide] stands 60 ± 8%; under `C[C@@H](NS(C)(=O)=O)c1cccc(C(=O)c2ccco2)c1` [Compound 6, N-[(1R)-1-[3-(2-furoyl)phenyl]ethyl}methanesulfonamide], 52 ± 7%.
`C[C@@H](NS(=O)(=O)c1cccs1)c1ccc(OS(=O)(=O)C(F)(F)F)cc1` [Compound 7, 4-{(1R)-1-[(thien-2-ylsulfonyl)amino]ethyl}phenyl trifluoromethanesulfonate]: the “% inhibition C5a induced PMN migration” value worked out at 41 ± 8%.
Still for that read-out and setting: next, `C[C@@H](NS(=O)(=O)c1cccs1)c1cccc(C(=O)c2ccccc2)c1` [Compound 8, N-[(1R)-1-(3-benzoylphenyl]ethyl}thiophene-2-sulfonamide]: 55 ± 14%; `COC(=O)c1ccc(S(=O)(=O)N[C@H](C)c2cccc(C(=O)c3ccccc3)c2)o1` [Compound 10, methyl 5-({[(1R)-1-(3-benzoylphenyl)ethyl]amino}sulfonyl)-2-furoate]: 72 ± 6%.
Same read-out and setting: next, `C[C@@H](NS(=O)(=O)c1ccc(C(=O)O)o1)c1cccc(C(=O)c2ccccc2)c1` [Compound 11, 5-({[(1R)-1-(3-benzoylphenyl)ethyl]amino}sulfonyl)-2-furoic acid]: 40 ± 4%; `CC(C)[C@@H](NS(C)(=O)=O)c1ccc(OS(=O)(=O)C(F)(F)F)cc1` [Compound 12, 4-{(1R)-2-methyl-1-[(methylsulfonyl)amino]propyl}phenyl trifluoromethanesulfonate]: 40 ± 5%.
On the same count and under the same terms, under `C[C@@H](NS(C)(=O)=O)c1ccc(C(C)(C)S(=O)(=O)c2ccccc2)cc1` [Compound 13, N-((1R)-1-{4-[1-methyl-1-(phenylsulfonyl)ethyl]phenyl}ethyl)methanesulfonamide] stands 64 ± 8%; under `CC(C)C(=O)N[C@H](C)c1ccc(OS(=O)(=O)C(F)(F)F)cc1` [Compound 14, 4-[(1R)-1-(isobutyrylamino)ethyl]phenyl trifluoromethanesulfonate], 60 ± 8%.
`C[C@@H](NC(=O)c1cccnc1)c1ccc(OS(=O)(=O)C(F)(F)F)cc1` [Compound 15, 4-{[(1R)-1-(pyridine-3-ylcarbonyl)amino]ethyl]}phenyl trifluoromethanesulfonate]: the “% inhibition C5a induced PMN migration” value is listed as 46 ± 6%.
Same read-out and setting: next, `C[C@@H](NC(=O)c1ccccc1)c1cccc(C(=O)c2ccccc2)c1` [Compound 16, N-[(1R)-1-(3-benzoylphenyl)ethyl]benzamide]: 49 ± 5 %; `C[C@@H](NC(=O)c1ccco1)c1cccc(C(=O)c2ccccc2)c1` [Compound 17, N-[(1R)-1-(3-benzoylphenyl)ethyl]-2-furamide]: 63 ± 10%; `C[C@@H](NC(=O)C1CCC1)c1cccc(C(=O)c2ccccc2)c1` [Compound 18, N-[(1R)-1-(3-benzoylphenyl)ethyl]cyclobutanecarboxamide]: 57 ± 4%.
For `C[C@@H](NC(=O)CCCN1CCCCC1)c1ccc(OS(=O)(=O)C(F)(F)F)cc1` [Compound 19, N-[(1R)-1-(4-trifluoromethanesulfonyloxy)phenylethyl]-4-piperidin-1-ylbutanamide], the “% inhibition C5a induced PMN migration” value came out at 54 ± 17%.
In the case of `C[C@@H](NC(=O)CCCN1CCCC1)c1ccc(OS(=O)(=O)C(F)(F)F)cc1` [Compound 20, 4-{(1R)-1-[(4-pyrrolidin-1-ylbutanoyl)amino]ethyl]}phenyl trifluoromethanesulfonate], the “% inhibition C5a induced PMN migration” value is recorded as 47 ± 1%.
Regarding `C[C@@H](Nc1nc(C(F)(F)F)cs1)c1cccc(C(=O)c2ccccc2)c1` [Compound 21], the “% inhibition C5a induced PMN migration” value is on record as 42 ± 5%.

Tested on in a further series: not given
Assay: not given
Settings: not given
In the case of `C[C@@H](NC(=O)c1cccnc1)c1ccc(OS(=O)(=O)C(F)(F)F)cc1` (as salt: methanesulfonate) [Compound 15, 4-{[(1R)-1-(pyridine-3-ylcarbonyl)amino]ethyl]}phenyl trifluoromethanesulfonate], the melting point lay in the range of 120 to 122 °C.
Regarding `C[C@@H](NS(=O)(=O)c1cccs1)c1cccc(C(=O)c2ccco2)c1` [Compound 5, N-[(1R)-1-[3-(2-furoyl)phenyl]ethyl}thiophene-2-sulfonamide], the melting point fell in the range of 105 to 106 °C.
Same read-out and setting: under `C[C@@H](NC(=O)C1CCC1)c1cccc(C(=O)c2ccccc2)c1` [Compound 18, N-[(1R)-1-(3-benzoylphenyl)ethyl]cyclobutanecarboxamide] stands 90 to 93 °C.
